Source: US9943519B2, “Pharmaceutical compounds” (F.HOFFMANN-LA ROCHE AG, priority 2006, dated 2018)

How the values were obtained:
Type in all cases: biochemical
Conditions in all cases: ratio of IC50 values, SPA, purified human PI3K isoforms
[1] = biological target: human PI3K isoform beta (p110 beta) (Homo sapiens, UniProt P42338); experiment: p110 isoform selectivity scintillation proximity assay (beta)
Description: (§1) Binding of compounds of the invention from above Tables 1a and 1b to purified preparations of p110 isoforms alpha, beta, delta, and gamma was measured by a Scintillation Proximity Assay (SPA) to determine binding activity (IC50 μMol) and selectivity of binding of beta, delta, and gamma isoforms relative to alpha (Example 8). These values are expressed in Table 2.
(§2) The ability of representative compounds from Tables 1a and 1b to inhibit the lipid kinase activity of purified preparations of human PI3K isoforms alpha, beta, delta, and gamma was determined by a radiometric scintillation proximity assay (SPA, GE Healthcare, Amersham Biosciences). Concentration dependent inhibition at 50% (IC50 μMol) was determined for all four isoforms […] and fold potency over beta, delta, and gamma relative to alpha was calculated for a selection of compounds in Table 2. Each compound has a p110 alpha IC50<1 μMol.

[2] = biological target: human PI3K isoform gamma (p110 gamma) (Homo sapiens, UniProt P48736); experiment: p110 isoform selectivity scintillation proximity assay (gamma)
Sequence of human PI3K isoform gamma (p110 gamma) (P48736 whole entry, canonical isoform): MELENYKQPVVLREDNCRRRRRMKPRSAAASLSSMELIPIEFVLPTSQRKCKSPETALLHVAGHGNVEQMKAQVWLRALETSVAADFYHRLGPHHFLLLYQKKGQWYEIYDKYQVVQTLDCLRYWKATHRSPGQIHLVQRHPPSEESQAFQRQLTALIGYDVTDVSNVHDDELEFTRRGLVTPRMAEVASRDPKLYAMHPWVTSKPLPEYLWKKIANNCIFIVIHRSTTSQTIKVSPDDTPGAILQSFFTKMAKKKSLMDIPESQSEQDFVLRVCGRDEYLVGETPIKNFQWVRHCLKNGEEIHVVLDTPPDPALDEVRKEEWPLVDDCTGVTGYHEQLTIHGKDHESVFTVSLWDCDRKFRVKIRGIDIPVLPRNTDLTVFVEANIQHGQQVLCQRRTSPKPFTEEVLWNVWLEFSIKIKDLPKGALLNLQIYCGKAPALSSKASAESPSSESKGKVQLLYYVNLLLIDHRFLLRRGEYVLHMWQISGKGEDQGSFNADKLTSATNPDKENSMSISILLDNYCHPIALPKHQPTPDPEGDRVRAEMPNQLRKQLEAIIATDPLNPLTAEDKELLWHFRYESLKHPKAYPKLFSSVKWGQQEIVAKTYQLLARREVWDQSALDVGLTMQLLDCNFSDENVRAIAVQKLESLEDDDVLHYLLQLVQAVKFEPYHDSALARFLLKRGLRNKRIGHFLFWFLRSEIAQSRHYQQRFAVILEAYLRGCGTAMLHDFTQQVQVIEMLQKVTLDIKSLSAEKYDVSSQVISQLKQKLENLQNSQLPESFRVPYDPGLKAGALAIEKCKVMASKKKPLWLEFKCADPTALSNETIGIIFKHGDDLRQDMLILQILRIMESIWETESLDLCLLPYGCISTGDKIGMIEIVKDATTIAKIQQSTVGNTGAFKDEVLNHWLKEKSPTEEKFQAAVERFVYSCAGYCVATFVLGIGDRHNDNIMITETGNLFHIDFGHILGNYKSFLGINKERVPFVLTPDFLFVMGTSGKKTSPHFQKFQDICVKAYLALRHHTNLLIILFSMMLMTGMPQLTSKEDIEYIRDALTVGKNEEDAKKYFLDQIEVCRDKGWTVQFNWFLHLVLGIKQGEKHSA
Description: as §1, §2

[3] = biological target: human PI3K isoform delta (p110 delta) (Homo sapiens, UniProt O00329); experiment: p110 isoform selectivity scintillation proximity assay (delta)
Sequence of human PI3K isoform delta (p110 delta) (O00329 whole entry, canonical isoform): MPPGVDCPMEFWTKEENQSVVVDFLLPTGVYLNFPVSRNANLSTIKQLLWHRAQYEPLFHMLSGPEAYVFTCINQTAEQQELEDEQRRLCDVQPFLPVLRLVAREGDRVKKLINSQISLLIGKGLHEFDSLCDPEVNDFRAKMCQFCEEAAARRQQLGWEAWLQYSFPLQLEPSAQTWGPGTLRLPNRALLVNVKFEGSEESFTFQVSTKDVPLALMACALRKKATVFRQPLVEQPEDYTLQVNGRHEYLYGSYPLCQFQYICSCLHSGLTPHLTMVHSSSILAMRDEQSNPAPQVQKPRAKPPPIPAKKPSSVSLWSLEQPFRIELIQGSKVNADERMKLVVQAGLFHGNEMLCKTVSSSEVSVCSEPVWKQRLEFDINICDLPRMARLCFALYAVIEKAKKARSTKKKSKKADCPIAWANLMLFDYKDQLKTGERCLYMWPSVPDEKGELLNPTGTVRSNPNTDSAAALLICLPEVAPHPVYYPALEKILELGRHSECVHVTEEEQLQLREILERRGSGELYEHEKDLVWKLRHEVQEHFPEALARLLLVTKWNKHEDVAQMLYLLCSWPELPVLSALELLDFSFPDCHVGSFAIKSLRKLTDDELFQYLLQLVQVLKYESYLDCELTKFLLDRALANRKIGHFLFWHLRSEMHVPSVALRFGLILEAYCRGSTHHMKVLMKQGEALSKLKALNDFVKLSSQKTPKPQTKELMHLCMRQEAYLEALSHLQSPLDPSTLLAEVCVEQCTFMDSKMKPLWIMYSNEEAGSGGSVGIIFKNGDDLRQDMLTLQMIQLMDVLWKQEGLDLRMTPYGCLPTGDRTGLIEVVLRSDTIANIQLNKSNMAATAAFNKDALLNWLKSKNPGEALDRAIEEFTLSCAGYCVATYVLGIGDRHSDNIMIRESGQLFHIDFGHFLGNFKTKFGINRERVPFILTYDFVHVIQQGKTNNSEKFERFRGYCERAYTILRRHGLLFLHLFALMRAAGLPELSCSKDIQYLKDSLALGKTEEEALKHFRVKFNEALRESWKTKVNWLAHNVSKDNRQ
Sequence of human PI3K isoform delta (p110 delta) (P27986 whole entry partner, canonical isoform): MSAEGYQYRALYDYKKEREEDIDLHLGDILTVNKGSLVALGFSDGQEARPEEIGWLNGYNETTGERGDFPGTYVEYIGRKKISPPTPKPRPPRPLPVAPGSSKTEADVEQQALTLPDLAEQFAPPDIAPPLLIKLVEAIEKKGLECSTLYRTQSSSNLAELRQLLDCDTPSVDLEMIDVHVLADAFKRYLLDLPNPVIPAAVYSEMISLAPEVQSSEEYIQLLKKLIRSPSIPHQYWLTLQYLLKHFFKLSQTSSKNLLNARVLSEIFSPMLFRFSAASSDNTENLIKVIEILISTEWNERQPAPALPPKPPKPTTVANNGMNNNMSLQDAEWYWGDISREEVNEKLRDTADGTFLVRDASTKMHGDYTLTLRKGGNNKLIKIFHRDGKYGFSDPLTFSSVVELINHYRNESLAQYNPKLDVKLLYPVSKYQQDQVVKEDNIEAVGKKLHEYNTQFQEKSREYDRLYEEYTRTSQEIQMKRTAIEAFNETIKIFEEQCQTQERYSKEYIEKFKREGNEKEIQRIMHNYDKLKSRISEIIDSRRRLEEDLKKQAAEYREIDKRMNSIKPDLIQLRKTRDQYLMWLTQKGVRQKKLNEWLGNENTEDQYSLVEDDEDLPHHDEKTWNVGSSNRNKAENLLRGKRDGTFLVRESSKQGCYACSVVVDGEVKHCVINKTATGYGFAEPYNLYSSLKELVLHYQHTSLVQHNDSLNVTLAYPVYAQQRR
Description: as §1, §2

Sequence of human PI3K isoform beta (p110 beta) (P42338 whole entry, canonical isoform): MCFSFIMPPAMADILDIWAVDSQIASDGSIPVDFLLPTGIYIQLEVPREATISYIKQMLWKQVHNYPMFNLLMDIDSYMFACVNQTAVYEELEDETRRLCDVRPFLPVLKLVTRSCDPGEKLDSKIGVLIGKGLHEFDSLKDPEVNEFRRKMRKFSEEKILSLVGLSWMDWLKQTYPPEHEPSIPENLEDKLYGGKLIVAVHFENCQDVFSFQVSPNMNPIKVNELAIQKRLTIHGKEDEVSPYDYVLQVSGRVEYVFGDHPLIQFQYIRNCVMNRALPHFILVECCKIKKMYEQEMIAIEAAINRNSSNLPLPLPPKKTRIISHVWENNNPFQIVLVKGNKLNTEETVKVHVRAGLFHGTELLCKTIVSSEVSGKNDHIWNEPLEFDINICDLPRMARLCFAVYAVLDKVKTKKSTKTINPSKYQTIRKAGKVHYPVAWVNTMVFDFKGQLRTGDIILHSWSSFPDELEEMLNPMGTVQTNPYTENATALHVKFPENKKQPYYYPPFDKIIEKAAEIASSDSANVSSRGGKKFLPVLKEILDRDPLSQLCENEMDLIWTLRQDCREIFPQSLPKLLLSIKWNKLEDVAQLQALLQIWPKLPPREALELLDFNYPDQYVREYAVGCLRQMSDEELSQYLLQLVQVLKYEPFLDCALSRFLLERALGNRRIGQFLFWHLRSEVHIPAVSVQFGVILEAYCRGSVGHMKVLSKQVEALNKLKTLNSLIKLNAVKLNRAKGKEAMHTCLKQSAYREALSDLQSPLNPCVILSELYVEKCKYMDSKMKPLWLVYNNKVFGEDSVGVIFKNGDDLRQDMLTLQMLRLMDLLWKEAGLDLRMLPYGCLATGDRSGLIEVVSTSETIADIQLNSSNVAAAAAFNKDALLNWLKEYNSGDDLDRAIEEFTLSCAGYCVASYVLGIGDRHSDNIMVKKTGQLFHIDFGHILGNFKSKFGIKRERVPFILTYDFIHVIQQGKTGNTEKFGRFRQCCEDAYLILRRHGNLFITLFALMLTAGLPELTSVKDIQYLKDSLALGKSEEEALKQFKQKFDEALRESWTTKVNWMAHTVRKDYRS
Sequence of human PI3K isoform beta (p110 beta) (P27986 whole entry partner, canonical isoform): as the sequence (P27986 whole entry partner, canonical isoform) above

Structure (SMILES)	alpha/beta (fold potency over beta relative to alpha) [1] [fold]	alpha/gamma (fold potency over gamma relative to alpha) [2] [fold]	alpha/delta (fold potency over delta relative to alpha) [3] [fold]
CS(=O)(=O)N1CCN(Cc2cc3c(N4CCOCC4)nc(-c4cnc5[nH]ccc5c4)nc3s2)CC1 [Compound 140]	>10	>10	>10
CS(=O)(=O)N1CCN(Cc2cc3nc(-c4cnc5ccccc5c4)nc(N4CCOCC4)c3s2)CC1 [Compound 89, 3-[6-(4-Methanesulfonyl-piperazin-1-ylmethyl)-4-morpholin-yl-thieno[3,2-d]pyrimidin-2-yl]-quinoline]	>10	>10	>10
CN(Cc1cc2nc(-c3cccc4[nH]ncc34)nc(N3CCOCC3)c2s1)CC1CCCN1S(C)(=O)=O (stereo not drawn) [Compound 59, N-((2-(1H-indazol-4-yl)-4-morpholinothieno[3,2-d]pyrimidin-6-yl)methyl)-N-methyl(1-methylsulfonylpyrrolidin-2-yl)methanamine]	>10	>10	<10
Cc1nc2cc(-c3nc(N4CCOCC4)c4sc(CN5CCN(S(C)(=O)=O)CC5)cc4n3)ccc2[nH]1 [Compound 157, 6-(4-Methanesulfonyl-piperazin-1-ylmethyl)-2-(2-methyl-1H-benzoimidazol-5-yl)-4-morpholin-4-yl-thieno[3,2-d]pyrimidine]	>10	>10	<10
CS(=O)(=O)N1CCN(Cc2cc3c(N4CCOCC4)nc(-c4cncc5ccccc45)nc3s2)CC1 [Compound 94, 4-[6-(4-Methanesulfonyl-piperazin-1-ylmethyl)-4-morpholin-4-yl-thieno[2,3-d]pyrimidin-2-yl]-isoquinoline]	>10	>10	<10
Cc1nc2ccccc2n1-c1nc(N2CCOCC2)c2cc(CN3CCN(S(C)(=O)=O)CC3)sc2n1 [Compound 16, 2-(2-methyl-1H-benzo[d]imidazol-1-yl)-6-((4-methylsulfonylpiperazin-1-yl)methyl)-4-morpholinothieno[2,3-d]pyrimidine]	>10	>10	<10
Cc1c(CN2CCC(S(C)(=O)=O)CC2)sc2c(N3CCOCC3)nc(-c3cccc4[nH]ncc34)nc12 [Compound 23, 2-(1H-indazol-4-yl)-7-methyl-6-((4-(methylsulfonyl)piperidin-1-yl)methyl)-4-morpholinothieno[3,2-d]pyrimidine]	>10	>10	<10
CS(=O)(=O)N1CCN(Cc2cc3c(N4CCOCC4)nc(-c4cnc5ccccc5c4)nc3s2)CC1 [Compound 95, 3-[6-(4-Methanesulfonyl-piperazin-1-ylmethyl)-4-morpholin-4-yl-thieno[2,3-d]pyrimidin-2-yl]-quinoline]	>10	>10	>10
CS(=O)(=O)N1CCN(Cc2cc3nc(-c4cnc5[nH]cnc5c4)nc(N4CCOCC4)c3s2)CC1 [Compound 144]	<10	>10	<10

More lines, now with the values ahead:

alpha/beta (fold potency over beta relative to alpha) [1] [fold]	alpha/gamma (fold potency over gamma relative to alpha) [2] [fold]	alpha/delta (fold potency over delta relative to alpha) [3] [fold]	Structure (SMILES)
>10	>10	<10	CN(C)S(=O)(=O)C1CCN(Cc2cc3nc(-c4cccc5[nH]ncc45)nc(N4CCOCC4)c3s2)CC1 [Compound 27, 2-(1H-indazol-4-yl)-6-((4-N,N-dimethylaminosulfonylpiperidin-1-yl)methyl)-4-morpholinothieno[3,2-d]pyrimidine]
>10	>10	<10	C[C@@H]1CN(S(C)(=O)=O)C[C@H](C)N1Cc1cc2nc(-c3cccc4[nH]ncc34)nc(N3CCOCC3)c2s1 [Compound 7, 6-(((2R,6S)-4-methylsulfonyl-2,6-dimethylpiperazin-1-yl)methyl)-2-(1H-indazol-4-yl)-4-morpholinothieno[3,2-d]pyrimidine]
>10	>10	<10	CN(Cc1cc2nc(-c3cccc4[nH]ncc34)nc(N3CCOCC3)c2s1)C1CCN(S(C)(=O)=O)C1 (stereo not drawn) [Compound 60, N-((2-(1H-indazol-4-yl)-4-morpholinothieno[3,2-d]pyrimidin-6-yl)methyl)-N-methyl-(1-methylsulfonylpyrrolidin)-3-amine]
>10	>10	<10	CN(C1CCN(Cc2cc3nc(-c4cccc5[nH]ncc45)nc(N4CCOCC4)c3s2)C1)S(C)(=O)=O (stereo not drawn) [Compound 58, 1-((2-(1H-indazol-4-yl)-4-morpholinothieno[3,2-d]pyrimidin-6-yl)methyl)-N-methyl-N-methylsulfonylpyrrolidin-3-amine]
>10	>10	<10	CS(=O)(=O)N1CCN(Cc2cc3nc(-c4cnc5[nH]ccc5c4)nc(N4CCOCC4)c3o2)CC1 [Compound 142]
>10	>10	<10	Cc1c(CN2CCN(S(C)(=O)=O)CC2)sc2c(N3CCOCC3)nc(-c3cccc4[nH]ncc34)nc12 [Compound 29, 2-(1H-indazol-4-yl)-7-methyl-6-((4-(methylsulfonyl)piperazin-1-yl)methyl)-4-morpholinothieno[3,2-d]pyrimidine]
<10	<10	<10	CS(=O)(=O)N1CCN(Cc2cc3nc(-c4cccc5[nH]cnc45)nc(N4CCOCC4)c3s2)CC1 [Compound 139]
>10	>10	<10	C[C@H]1CN(Cc2cc3nc(-c4cccc5[nH]ncc45)nc(N4CCOCC4)c3s2)CCN1S(C)(=O)=O [Compound 4, 2-(1H-indazol-4-yl)-6-(((3S,5R)-3-methyl-4-methylsulfonylpiperazin-1-yl)methyl)-4-morpholinothieno[3,2-d]pyrimidine]
<10	>10	<10	CS(=O)(=O)N1CCN(Cc2cc3c(N4CCOCC4)nc(-c4cccc5[nH]ncc45)nc3o2)CC1 [Compound 141, 2-(1H-indazol-4-yl)-6-((4-methylsulfonylpiperazin-1-yl)methyl)-4-morpholinofuro[2,3-d]pyrimidine]
>10	>10	<10	CN1CCN(S(=O)(=O)C2CCN(Cc3cc4nc(-c5cccc6[nH]ncc56)nc(N5CCOCC5)c4s3)CC2)CC1 [Compound 24, 2-(1H-indazol-4-yl)-6-((4-N-4-methylpiperazinosulfonylpiperidin-1-yl)methyl)-4-morpholinothieno[3,2-d]pyrimidine]
>10	>10	<10	CS(=O)(=O)N1CCN(Cc2cc3nc(-c4cccc5[nH]ncc45)nc(N4CCOCC4)c3o2)CC1 [Compound 2, 2-(1H-indazol-4-yl)-6-((4-methylsulfonylpiperazin-1-yl)methyl)-4-morpholinofuro[3,2-d]pyrimidine]
<10	>10	<10	CC(=O)N1CCN(Cc2cc3nc(-c4cccc5[nH]ncc45)nc(N4CCOCC4)c3s2)CC1 [Compound 54, 1-(4-((2-(1H-indazol-4-yl)-4-morpholinothieno[3,2-d]pyrimidin-6-yl)methyl)piperazin-1-yl)ethanone]
<10	>10	<10	C[C@H](O)C(=O)N1CCN(Cc2cc3nc(-c4cccc5[nH]ncc45)nc(N4CCOCC4)c3s2)CC1 [Compound 66, (S)-1-(4-((2-(1H-indazol-4-yl)-4-morpholinothieno[3,2-d]pyrimidin-6-yl)methyl)piperazin-1-yl)-2-hydroxypropan-1-one]
